ChEMBL document CHEMBL1201862, “PubChem BioAssay data set” (2004)
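1) Cells in 96-well plates. 2) Compound, 48 h, 5 concentrations. 3) Linear interpolation between surrounding doses. 4) Unreached endpoint = highest concentration. GI50 marks 50% less growth.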 Active and inactive are the calls of the source. Rule as the data show it: active = GI50 up to about 1.1 µM and inactive = higher.

Key:
Assay in all cases: NCI anticancer screen, dose series, 48 h
BT-549 = tested on: BT-549
OVCAR-8 = tested on: OVCAR-8
HCT-116 = tested on: HCT-116
UO-31 = tested on: UO-31
MCF7 = tested on: MCF7
ACHN = tested on: ACHN
CAKI-1 = tested on: CAKI-1
CCRF-CEM = tested on: CCRF-CEM
MDA-MB-435 = tested on: MDA-MB-435
MDA-MB-231 = tested on: MDA-MB-231
HOP-92 = tested on: HOP-92
OVCAR-4 = tested on: OVCAR-4
IGROV-1 = tested on: IGROV-1
HCT-15 = tested on: HCT-15
HOP-62 = tested on: HOP-62
A549 = tested on: A549
NCI-H23 = tested on: NCI-H23
NCI-H460 = tested on: NCI-H460
SW-620 = tested on: SW-620
SF-539 = tested on: SF-539

| Compound | GI50 (BT-549) | GI50 (OVCAR-8) | GI50 (HCT-116) | GI50 (UO-31) | GI50 (MCF7) | GI50 (ACHN) | GI50 (CAKI-1) | GI50 (CCRF-CEM) | GI50 (MDA-MB-435) | GI50 (MDA-MB-231) | GI50 (HOP-92) | GI50 (OVCAR-4) | GI50 (IGROV-1) | GI50 (HCT-15) [µM] | GI50 (HOP-62) | GI50 (A549) | GI50 (NCI-H23) | GI50 (NCI-H460) | GI50 (SW-620) | GI50 (SF-539) |
| --- | --- | --- | --- | --- | --- | --- | --- | --- | --- | --- | --- | --- | --- | --- | --- | --- | --- | --- | --- | --- |
| O=C1NC(=O)C(C(c2ccc(Cl)cc2)C2C(=O)NC(=O)NC2=O)C(=O)N1.c1ccncc1 | > 100 µM (inactive) | > 100 µM (inactive) | > 100 µM (inactive) | > 100 µM (inactive) | > 100 µM (inactive) | > 100 µM (inactive) | > 100 µM (inactive) | > 100 µM (inactive) | > 100 µM (inactive) | > 100 µM (inactive) | > 100 µM (inactive) | > 100 µM (inactive) | > 100 µM (inactive) | > 100 | > 100 µM (inactive) | > 100 µM (inactive) | > 100 µM (inactive) | > 100 µM (inactive) | > 100 µM (inactive) |  |
| COc1cc(/C=C2\CCC(C)C3C2=NN(C(C)=O)C3c2cc(OC)c(OC)c(OC)c2)cc(OC)c1OC (configuration not stated) | > 100 µM (inactive) | > 100 µM (inactive) | > 100 µM (inactive) |  | > 77.6 µM (inactive) | 25.1 µM (inactive) | 14.2 µM (inactive) | > 100 µM (inactive) | > 100 µM (inactive) | > 72.9 µM (inactive) | > 100 µM (inactive) | > 100 µM (inactive) | 3.13 µM (inactive) | 99.8 | > 59.2 µM (inactive) | > 100 µM (inactive) | > 100 µM (inactive) | > 100 µM (inactive) | > 100 µM (inactive) | > 100 µM (inactive) |
| O=C(O)/C=c1/c2ccccc2n2nc3ccccc3c12 | 37.4 µM (inactive) | 21.5 µM (inactive) | 24.8 µM (inactive) | 37.6 µM (inactive) | 35.2 µM (inactive) | 23.8 µM (inactive) | 37.3 µM (inactive) | 33.2 µM (inactive) | 31.6 µM (inactive) | 39.1 µM (inactive) |  | 22.8 µM (inactive) | 31.4 µM (inactive) | 26.8 | 31.6 µM (inactive) | 38.2 µM (inactive) | 27.7 µM (inactive) | 30.1 µM (inactive) | 35.6 µM (inactive) | 19.8 µM (inactive) |
| C#C[C@]1(O)CC[C@H]2[C@@H]3CCC4=C/C(=N/OC(=O)c5cccc6cc7ccccc7nc56)CC[C@@H]4[C@H]3CC[C@@]21CC | > 100 µM (inactive) | > 100 µM (inactive) | > 100 µM (inactive) |  | 76 µM (inactive) | > 100 µM (inactive) | > 100 µM (inactive) | 52.2 µM (inactive) | > 100 µM (inactive) | > 100 µM (inactive) | > 100 µM (inactive) | > 100 µM (inactive) | > 100 µM (inactive) | > 100 | > 100 µM (inactive) | > 100 µM (inactive) | > 100 µM (inactive) | > 100 µM (inactive) | > 100 µM (inactive) | > 100 µM (inactive) |
| CCNC(=S)N/N=C(\C)c1cccc(C)n1 | 31.5 µM (inactive) | 3.44 µM (inactive) | 7.18 µM (inactive) | 3.71 µM (inactive) | 3.32 µM (inactive) | 9.27 µM (inactive) |  | 0.351 µM (active) | 20.5 µM (inactive) | 7.36 µM (inactive) | 13.5 µM (inactive) |  | 4.36 µM (inactive) | 7.18 | 29.7 µM (inactive) | 20.6 µM (inactive) | 23 µM (inactive) | 6.01 µM (inactive) | 18.6 µM (inactive) | 18.7 µM (inactive) |
| Cc1ccc(S(=O)(=O)OCCC2CN(C(=O)OCc3ccccc3)C(C)(C)O2)cc1 (configuration not stated) | 1.89 µM (inactive) | 4.2 µM (inactive) | 7.23 µM (inactive) | 3.69 µM (inactive) | 7.83 µM (inactive) | 12.9 µM (inactive) | 60.1 µM (inactive) | 14.4 µM (inactive) | 3.61 µM (inactive) | > 100 µM (inactive) | 62.2 µM (inactive) | 6.68 µM (inactive) | 7.08 µM (inactive) | 3.66 |  | 9.59 µM (inactive) | 2.96 µM (inactive) | 3.47 µM (inactive) | 14.3 µM (inactive) | 12.5 µM (inactive) |
| O=c1oc2ccccc2cc1-c1cc2ccccn2c1 | > 100 µM (inactive) | > 100 µM (inactive) | > 100 µM (inactive) | > 100 µM (inactive) | 0.5 µM (active) | > 100 µM (inactive) | > 100 µM (inactive) | > 100 µM (inactive) | > 100 µM (inactive) | > 100 µM (inactive) | > 100 µM (inactive) | > 100 µM (inactive) | > 100 µM (inactive) | > 100 | > 100 µM (inactive) | > 100 µM (inactive) | > 100 µM (inactive) | > 100 µM (inactive) | > 100 µM (inactive) |  |
